# Measured values as given in US12459922B2 (Gilead Sciences, Inc., priority 2022, dated 2025).
# pEC50: −log10 of the molar value.
# System: endogenous cellular STAT1 (phosphorylated at Tyr701) in NCI-H1373 cells
# Assay: Phospho-STAT1 (Tyr701) LANCE Ultra TR-FRET Detection Assay
# Type: cell-based
# Settings: 48 hours, phospho-STAT1 (Tyr701) induction, read-out: NH1373 pSTAT1 EC50
row,pEC50,SMILES
1,7.78,"C[C@@H](CCCn1ccc2cc(-c3ncc(C(F)(F)F)c(N)n3)c(F)cc2c1=O)Nc1cn[nH]c(=O)c1C(F)(F)F [Example 128, (S)-6-(4-amino-5-(trifluoromethyl)pyrimidin-2-yl)-7-fluoro-2-(4-((6-oxo-5-(trifluoromethyl)-1,6-dihydropyridazin-4-yl)amino)pentyl)isoquinolin-1(2H)-one]"

# Same assay, conditions: Homo sapiens, NCI-H1373, 48 h, phospho-STAT1 (Tyr701) induction, read-out: NH1373 pSTAT1 EC50
row,SMILES,pEC50
1,"C[C@@H](CCCn1ccc2cc(-c3nc(N)ncc3C(F)F)c(F)c(F)c2c1=O)Nc1cn[nH]c(=O)c1C(F)(F)F [Example 114, 6-[2-amino-5-(difluoromethyl)pyrimidin-4-yl]-7,8-difluoro-2-[(4S)-4-[[6-oxo-5-(trifluoromethyl)-1H-pyridazin-4-yl]amino]pentyl]isoquinolin-1-one]",6.07
2,"C[C@@H](CCCn1cnc2cc(-c3ncc(C(F)(F)F)c(NC4CC4)n3)c(F)cc2c1=O)Nc1cn[nH]c(=O)c1C(F)(F)F [Example 116, 7-[4-(cyclopropylamino)-5-(trifluoromethyl)pyrimidin-2-yl]-6-fluoro-3-[(4S)-4-[[6-oxo-5-(trifluoromethyl)-1H-pyridazin-4-yl]amino]pentyl]quinazolin-4-one]",8.17
3,"Nc1nc(-c2cc3ccn(CCC[C@@H]4CCCN4c4cn[nH]c(=O)c4C(F)(F)F)c(=O)c3cc2F)ncc1C(F)(F)F [Example 121, (S)-6-(4-amino-5-(trifluoromethyl)pyrimidin-2-yl)-7-fluoro-2-(3-(1-(6-oxo-5-(trifluoromethyl)-1,6-dihydropyridazin-4-yl)pyrrolidin-2-yl)propyl)isoquinolin-1(2H)-one]",8.29
4,"COc1cnc(-c2cc3ccn(CCC[C@@H]4CCCN4c4cn[nH]c(=O)c4C(F)(F)F)c(=O)c3cc2F)nc1N [Example 122, (S)-6-(4-amino-5-methoxypyrimidin-2-yl)-7-fluoro-2-(3-(1-(6-oxo-5-(trifluoromethyl)-1,6-dihydropyridazin-4-yl)pyrrolidin-2-yl)propyl)isoquinolin-1(2H)-one]",8.09
5,"Nc1nc(-c2cc3ccn(CC[C@H]4CC[C@@H]4Nc4cn[nH]c(=O)c4C(F)(F)F)c(=O)c3cc2F)ncc1C(F)(F)F [Example 123, 6-(4-amino-5-(trifluoromethyl)pyrimidin-2-yl)-7-fluoro-2-(2-((1R,2S)-2-((6-oxo-5-(trifluoromethyl)-1,6-dihydropyridazin-4-yl)amino)cyclobutyl)ethyl)isoquinolin-1(2H)-one]",8.20
6,"C[C@@H](CCCn1cnc2cc(-c3ncc(C(F)(F)F)c(N4CC(O)C4)n3)c(F)cc2c1=O)Nc1cn[nH]c(=O)c1C(F)(F)F [Example 124, (S)-6-fluoro-7-(4-(3-hydroxyazetidin-1-yl)-5-(trifluoromethyl)pyrimidin-2-yl)-3-(4-((6-oxo-5-(trifluoromethyl)-1,6-dihydropyridazin-4-yl)amino)pentyl)quinazolin-4(3H)-one]",7.94
7,"C[C@@H](CCCn1cnc2cc(-c3ncc(C#N)c(N)n3)c(F)cc2c1=O)Nc1cn[nH]c(=O)c1C(F)(F)F [Example 125, (S)-4-amino-2-(6-fluoro-4-oxo-3-(4-((6-oxo-5-(trifluoromethyl)-1,6-dihydropyridazin-4-yl)amino)pentyl)-3,4-dihydroquinazolin-7-yl)pyrimidine-5-carbonitrile]",7.07
8,"C[C@@H](CCCn1cnc2cc(-c3ncc(S(C)(=O)=O)cn3)c(F)cc2c1=O)Nc1cn[nH]c(=O)c1C(F)(F)F [Example 126, (S)-6-fluoro-7-(5-(methylsulfonyl)pyrimidin-2-yl)-3-(4-((6-oxo-5-(trifluoromethyl)-1,6-dihydropyridazin-4-yl)amino)pentyl)quinazolin-4(3H)-one]",5.89
9,"C[C@@H](CCCn1cnc2cc(-c3ncc(OCCO)cn3)c(F)cc2c1=O)Nc1cn[nH]c(=O)c1C(F)(F)F [Example 127, (S)-6-fluoro-7-(5-(2-hydroxyethoxy)pyrimidin-2-yl)-3-(4-((6-oxo-5-(trifluoromethyl)-1,6-dihydropyridazin-4-yl)amino)pentyl)quinazolin-4(3H)-one]",6.32
10,"O=c1[nH]ncc(NC[C@H]2C[C@H](Cn3ccc4cc(-c5ncc(C(F)(F)F)cn5)c(F)c(F)c4c3=O)C2)c1C(F)(F)F [Example 130, 7,8-difluoro-2-(((1R,3R)-3-(((6-oxo-5-(trifluoromethyl)-1,6-dihydropyridazin-4-yl)amino)methyl)cyclobutyl)methyl)-6-(5-(trifluoromethyl)pyrimidin-2-yl)isoquinolin-1(2H)-one]",5.83
11,"COc1cnc(-c2cc3ccn(C/C=C/[C@H](C)Nc4cn[nH]c(=O)c4C(F)(F)F)c(=O)c3cc2F)nc1N [Example 134, (S,E)-6-(4-amino-5-methoxypyrimidin-2-yl)-7-fluoro-2-(4-((6-oxo-5-(trifluoromethyl)-1,6-dihydropyridazin-4-yl)amino)pent-2-en-1-yl)isoquinolin-1(2H)-one]",8.28

# The next lines start with the values.
row,pEC50,SMILES
1,8.47,"CNc1nc(-c2cc3ncn(CCC[C@H](C)Nc4cn[nH]c(=O)c4C(F)(F)F)c(=O)c3cc2F)ncc1C(F)(F)F [Example 115, 6-fluoro-7-[4-(methylamino)-5-(trifluoromethyl)pyrimidin-2-yl]-3-[(4S)-4-[[6-oxo-5-(trifluoromethyl)-1H-pyridazin-4-yl]amino]pentyl]quinazolin-4-one]"
2,8.28,"CCNc1nc(-c2cc3ncn(CCC[C@H](C)Nc4cn[nH]c(=O)c4C(F)(F)F)c(=O)c3cc2F)ncc1C(F)(F)F [Example 117, 7-[4-(ethylamino)-5-(trifluoromethyl)pyrimidin-2-yl]-6-fluoro-3-[(4S)-4-[[6-oxo-5-(trifluoromethyl)-1H-pyridazin-4-yl]amino]pentyl]quinazolin-4-one]"
3,8.01,"C[C@@H](CCCn1ccc2cc(-c3ncc4c(n3)NCCO4)c(F)cc2c1=O)Nc1cn[nH]c(=O)c1C(F)(F)F [Example 118, 6-(7,8-dihydro-6H-pyrimido[5,4-b] [1,4]oxazin-2-yl)-7-fluoro-2-[(4S)-4-[[6-oxo-5-(trifluoromethyl)-1H-pyridazin-4-yl]amino]pentyl]isoquinolin-1-one]"
4,8.47,"C[C@@H](CCCn1ccc2cc(-c3ncc(C(F)(F)F)c(N4CC(C#N)C4)n3)c(F)cc2c1=O)Nc1cn[nH]c(=O)c1C(F)(F)F [Example 119, (S)-1-(2-(7-fluoro-1-oxo-2-(4-((6-oxo-5-(trifluoromethyl)-1,6-dihydropyridazin-4-yl)amino)pentyl)-1,2-dihydroisoquinolin-6-yl)-5-(trifluoromethyl)pyrimidin-4-yl)azetidine-3-carbonitrile]"
5,8.01,"O=c1[nH]ncc(N2CCC[C@H]2CCCn2ccc3cc(-c4ncc(C(F)(F)F)cn4)c(F)cc3c2=O)c1C(F)(F)F [Example 120, (S)-7-fluoro-2-(3-(1-(6-oxo-5-(trifluoromethyl)-1,6-dihydropyridazin-4-yl)pyrrolidin-2-yl)propyl)-6-(5-(trifluoromethyl)pyrimidin-2-yl)isoquinolin-1(2H)-one]"
6,7.11,"C[C@@H](CCCn1ccc2cc(-c3ncc(OCCO)cn3)c(F)cc2c1=O)Nc1cn[nH]c(=O)c1C(F)(F)F [Example 129, (S)-7-fluoro-6-(5-(2-hydroxyethoxy)pyrimidin-2-yl)-2-(4-((6-oxo-5-(trifluoromethyl)-1,6-dihydropyridazin-4-yl)amino)pentyl)isoquinolin-1(2H)-one]"
7,6.80,"C[C@@H](Nc1cn[nH]c(=O)c1C(F)(F)F)/C(F)=C/Cn1ccc2cc(-c3ncc(C(F)(F)F)cn3)c(F)c(F)c2c1=O [Example 131, (R,Z)-7,8-difluoro-2-(3-fluoro-4-((6-oxo-5-(trifluoromethyl)-1,6-dihydropyridazin-4-yl)amino)pent-2-en-1-yl)-6-(5-(trifluoromethyl)pyrimidin-2-yl)isoquinolin-1(2H)-one]"
8,8.46,"C[C@H](Nc1cn[nH]c(=O)c1C(F)(F)F)/C(F)=C/Cn1ccc2cc(-c3ncc(C(F)(F)F)cn3)c(F)c(F)c2c1=O [Example 132, (S,Z)-7,8-difluoro-2-(3-fluoro-4-((6-oxo-5-(trifluoromethyl)-1,6-dihydropyridazin-4-yl)amino)pent-2-en-1-yl)-6-(5-(trifluoromethyl)pyrimidin-2-yl)isoquinolin-1(2H)-one]"
9,8.55,"C[C@@H](/C=C/Cn1ccc2cc(-c3ncc(C(F)(F)F)cn3)c(F)c(F)c2c1=O)Nc1cn[nH]c(=O)c1C(F)(F)F [Example 133, (S,E)-7,8-difluoro-2-(4-((6-oxo-5-(trifluoromethyl)-1,6-dihydropyridazin-4-yl)amino)pent-2-en-1-yl)-6-(5-(trifluoromethyl)pyrimidin-2-yl)isoquinolin-1(2H)-one]"
10,7.75,"COC[C@@H](CCCn1ccc2cc(-c3ncc(C(F)(F)F)cn3)c(F)cc2c1=O)Nc1cn[nH]c(=O)c1C(F)(F)F [Example 135, (R)-7-fluoro-2-(5-methoxy-4-((6-oxo-5-(trifluoromethyl)-1,6-dihydropyridazin-4-yl)amino)pentyl)-6-(5-(trifluoromethyl)pyrimidin-2-yl)isoquinolin-1(2H)-one]"
11,7.12,"CC(CCCn1ccc2cc(-c3ncc(C(F)(F)F)cn3)c(F)cc2c1=O)Oc1cn[nH]c(=O)c1C(F)(F)F (stereo not shown) [Example 136, 7-fluoro-2-[4-[[6-oxo-5-(trifluoromethyl)-1H-pyridazin-4-yl]oxy]pentyl]-6-[5-(trifluoromethyl)pyrimidin-2-yl]isoquinolin-1-one]"
12,7.30,"CC(C)(CCCn1ccc2cc(-c3ncc(C(F)(F)F)c(N)n3)c(F)cc2c1=O)Nc1cn[nH]c(=O)c1C(F)(F)F [Example 137, 6-(4-amino-5-(trifluoromethyl)pyrimidin-2-yl)-7-fluoro-2-(4-methyl-4-((6-oxo-5-(trifluoromethyl)-1,6-dihydropyridazin-4-yl)amino)pentyl)isoquinolin-1(2H)-one]"
13,7.26,"O=c1[nH]ncc(N2C[C@@H](O)C[C@H]2CCCn2ccc3cc(-c4ncc(C(F)(F)F)cn4)c(F)cc3c2=O)c1C(F)(F)F [Example 138, 7-fluoro-2-(3-((2R,4S)-4-hydroxy-1-(6-oxo-5-(trifluoromethyl)-1,6-dihydropyridazin-4-yl)pyrrolidin-2-yl)propyl)-6-(5-(trifluoromethyl)pyrimidin-2-yl)isoquinolin-1(2H)-one]"
